For 43 compounds, melting point and IC50 results are on record in US7244727B2, “Fused bicyclic nitrogen-containing heterocycles” (Japan Tobacco Inc., priority 2002, dated 2007).

Bounds are passed on as bounds.

Series [1] has as its target T1, human DGAT1 (Homo sapiens, UniProt O75907).
T1 construct: made in house; host or cells: insect cells (sf9, sf21 or High Five) infected with baculovirus; total cell membranes
T1 sequence (O75907 1-488): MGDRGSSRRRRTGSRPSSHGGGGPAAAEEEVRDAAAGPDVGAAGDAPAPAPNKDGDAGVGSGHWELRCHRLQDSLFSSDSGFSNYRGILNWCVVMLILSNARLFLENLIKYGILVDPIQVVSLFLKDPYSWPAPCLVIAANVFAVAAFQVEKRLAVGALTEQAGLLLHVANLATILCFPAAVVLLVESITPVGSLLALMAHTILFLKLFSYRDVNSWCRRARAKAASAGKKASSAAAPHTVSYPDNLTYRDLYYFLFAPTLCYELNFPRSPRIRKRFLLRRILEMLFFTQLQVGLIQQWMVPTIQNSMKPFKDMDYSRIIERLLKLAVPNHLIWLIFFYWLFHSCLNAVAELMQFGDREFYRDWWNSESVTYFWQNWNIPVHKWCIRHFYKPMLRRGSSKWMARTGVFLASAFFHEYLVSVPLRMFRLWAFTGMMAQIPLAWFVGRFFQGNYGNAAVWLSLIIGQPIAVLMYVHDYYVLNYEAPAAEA
The series is described as follows: DGAT Scintillation Proximity Assay (SPA) with membranes of insect cells expressing human flagtag DGAT1. Particulars: read-out: hDGAT1 IC50. In kind it is biochemical. The procedure: In such an assay human DGAT1 is cloned from a human liver cDNA library. PCR is used to add a restriction site and flag epitope at the most 5′ end and a restriction site at the 3′ end of the sequence. Thereafter, human flagtag (FT) DGAT1 baculovirus may be generated using a Bac-to-Bac Baculovirus Expression System® (Invitrogen). Insect cells (e.g., sf9, sf2 1, or High Five) are infected for 24 to 72 h and collected by centrifugation. Cell pellets are resuspended in homogenization buffer and lysed using a homogenization device, such as a Microfluidizer. Total cell membranes are collected by ultracentrifugation at 45,000 rpm for 1 h.
A small aliquot (0.2 μg/well) of membrane is incubated with 10 μM compound or mercuric chloride (as positive control for inhibition) in the presence of enzyme substrate, dioleoyl glycerol (200 μM) in 384 well plates, final volume 50 gL per well. […] The reaction is stopped by adding Wheat Germ Agglutinin (WGA) SPA beads (0.2 mg) in mercuric chloride. Cell membranes are allowed to couple to the beads overnight. The signal can be measured using, for example, a Chemiluminescence Image Plate Reader (CLIPR) or TopCount device.
(In general: Scintillation proximity formats need no separation of bound from free tracer.)

Broadly, the melting point is the temperature of the solid-liquid transition. As usually defined, the IC50 is the concentration that gives 50% inhibition. The compound `Nc1ncnc2c1NC(c1ccc(Cl)c(Cl)c1)CO2` (centres unmarked) [Example 1-36] came in with a melting point of 198 to 200 °C. The IC50 in series [1] was greater than 100 nM.

`CC(C(=O)O)[C@H]1CC[C@H](c2ccc(C3=Nc4c(N)ncnc4OC3(C)C)cc2)CC1` (some centres unmarked) [Example 2-69] gave a melting point greater than 250 °C. Also, the IC50 in series [1] is less than 10 nM.

`CC1(C)Oc2nc(C(F)(F)F)nc(N)c2N=C1c1ccc([C@H]2CC[C@H](CNC(=O)CO)CC2)cc1` [Example 2-154]: the melting point was in the range of 229 to 233 °C. For the same compound, the concentration for half-maximal inhibition (IC50) in series [1] was in the range of 10 to 100 nM.

`CC1(C)Oc2nc(C(F)(F)F)nc(N)c2N=C1c1ccc([C@H]2CC[C@H](CC(=O)O)CC2)c(Cl)c1` [Example 6-20] showed a melting point of 247 to 248 °C. In series [1], the IC50 is less than 10 nM.

On to `Cc1nc(N)c2c(n1)OC(C)(C)C(c1ccc([C@H]3CC[C@H](Cc4cc(O)n(C)n4)CC3)cc1)=N2` [Example 2-165], for which the melting point was greater than 250 °C. In addition, in series [1], the IC50 was 10 to 100 nM.

The compound `Cc1nc(N)c2c(n1)OC(C)(C)C(c1ccc([C@H]3CC[C@H](CN4CCC(O)C4=O)CC3)cc1)=N2` (some centres unmarked) [Example 2-166] gave a melting point of 225 to 233 °C. Also, in series [1], the IC50 lay within 10 to 100 nM.

`Cc1nc(N)c2c(n1)OC(C)(C)C(c1ccc(C3CC(CC(=O)O)C3(C)C)cc1)=N2` (centres unmarked) [Example 2-145] yielded a melting point greater than 250 °C. Besides, the IC50 in series [1] lay in the range of 10 to 100 nM.

Consider `CC(O)[C@H]1CC[C@H](c2ccc(C3=Nc4c(N)ncnc4OC3(C)C)cc2)CC1` (some centres unmarked) [Example 2-233], for which the melting point lay in the range of 224 to 229 °C. Moreover, in series [1], the IC50 was greater than 100 nM.

`Cc1nc(N)c2c(n1)OC(C)(C)C(c1ccc([C@H]3CC[C@H](CSC(C)(C)C(=O)O)CC3)cc1)=N2` [Example 2-260]: the melting point was 235 to 239 °C. Also, in series [1], the IC50 lay in the range of 10 to 100 nM.

Compound `CC1(C)Oc2ncnc(N)c2N=C1c1cccc(OCC2CCCCC2)c1` [Example 5-3] showed a melting point of 151 to 152 °C. Besides, in series [1], the IC50 was greater than 100 nM.

`Nc1ncnc2c1N=C(c1ccc(Br)cc1)C1(CCCC1)O2` [Example 2-13]: the melting point was 184 to 186 °C. Moreover, the IC50 in series [1] is greater than 100 nM.

Turning to `Nc1ncnc2c1N=C(c1c(F)c(F)c(F)c(F)c1F)CO2` [Example 1-31], the melting point was in the range of 190 to 192 °C. For the same compound, the IC50 in series [1] was greater than 100 nM.

In the case of `CC1(C)Oc2ncnc(N)c2NC1c1ccc([C@H]2CC[C@H](CS(N)(=O)=O)CC2)cc1` (some centres unmarked) [Example 2-221], the melting point was greater than 250 °C. Besides, the IC50 in series [1] was greater than 100 nM.

Compound `CC1(C)Oc2ncnc(N)c2N=C1c1ccc([C@H]2CC[C@H](C(=O)N3C[C@@H](O)[C@@H](O)C3)CC2)cc1` [Example 2-250] registered a melting point of 220 to 240 °C. The IC50 in series [1] lay in the range of 10 to 100 nM.

Compound `CC1(C)Oc2ncnc(N)c2N=C1c1ccc([C@H]2CC[C@H](Cc3nc4ccccc4[nH]3)CC2)cc1` [Example 2-109] displayed a melting point greater than 230 °C. Further, the IC50 in series [1] lay in the range of 10 to 100 nM.

Compound `CC(C)c1ccc(C2=Nc3c(N)ncnc3OC2)cc1` [Example 1-9] registered a melting point of 176 to 178 °C. For the same compound, in series [1], the IC50 is greater than 100 nM.

`COc1ccc(C2Nc3c(N)ncnc3OC2(C)C)cc1` (centres unmarked) [Example 2-24] returned a melting point of 225 to 226 °C. The IC50 in series [1] was greater than 100 nM.

In the case of `CC1(C)Oc2ncnc(N)c2N=C1c1ccc([C@H]2CC[C@H](CC(O)C(F)(F)F)CC2)cc1` (some centres unmarked) [Example 2-80], the melting point fell in the range of 271 to 272 °C. In series [1], the IC50 lay within 10 to 100 nM.

On to `CC1(C)Oc2ncnc(N)c2N=C1c1ccc(OC2CCCCC2)cc1` [Example 2-32], for which the melting point is 174 to 175 °C. For the same compound, the IC50 in series [1] is greater than 100 nM.

Compound `Cc1ccc(C2=Nc3c(N)ncnc3OC2)cc1` [Example 1-4] returned a melting point of 217 to 219 °C. The IC50 in series [1] is greater than 100 nM.

`CC1(C)Oc2ncnc(N)c2N=C1c1ccc([C@H]2CC[C@H](CC(=O)N3CCNCC3)CC2)cc1.Cl.Cl` [Example 2-111] showed a melting point greater than 250 °C. Besides, the IC50 in series [1] lay within 10 to 100 nM.

For `CC1(C)Oc2ncnc(N)c2N=C1c1ccc([C@H]2CC[C@H](CN3CCCCC3)CC2)cc1` [Example 2-224], the melting point was in the range of 169 to 171 °C. The IC50 in series [1] is greater than 100 nM.

Consider `Cc1nc(N)c2c(n1)OC(C)(C)C(c1ccc([C@H]3CC[C@H](Cc4cc(O)[nH]n4)CC3)c(Cl)c1)=N2` [Example 6-12], for which the melting point lay in the range of 171 to 173 °C. Besides, the IC50 in series [1] is less than 10 nM.

The compound `Nc1cccc2c1N=C(c1ccc(Br)cc1)CO2` [Example 1-15] registered a melting point of 75 to 77 °C. Also, in series [1], the IC50 is greater than 100 nM.

For the compound `Cc1ccc(C2Nc3c(N)ncnc3OC2(C)C)cc1` (centres unmarked) [Example 2-20], the melting point was greater than 230 °C. Further, the IC50 in series [1] is greater than 100 nM.

Regarding `Cc1nc(N)c2c(n1)OC(C)(C)C(c1ccc([C@H]3CC[C@H](CCc4nn[nH]n4)CC3)cc1)=N2` [Example 2-200], the melting point is greater than 250 °C. For the same compound, in series [1], the concentration for half-maximal inhibition (IC50) was less than 10 nM.

`CC1(C)Oc2ncnc(N)c2NC1c1ccc([C@H]2CC[C@H](CCC(=O)O)CC2)cc1` (some centres unmarked) [Example 2-6] registered a melting point greater than 250 °C. In addition, in series [1], the IC50 was 10 to 100 nM.

`O=c1[nH]c2ncnc3c2n1C(c1ccc(Br)cc1)CO3` (centres unmarked) [Example 1-35] returned a melting point greater than 220 °C. Besides, the IC50 in series [1] is greater than 100 nM.

The compound `CC1(C)Oc2ncnc(N)c2N=C1c1ccc([C@H]2CC[C@H](CNC(=O)[C@@H]3C[C@@H](O)CN3)CC2)cc1` [Example 2-132] displayed a melting point of 217 to 218 °C. For the same compound, in series [1], the 50% inhibitory concentration (IC50) was in the range of 10 to 100 nM.

The compound `CC1(C)Oc2ncnc(N)c2N=C1c1ccc(C2CCC(=CC(=O)NCc3ccccc3)CC2)cc1` (centres unmarked) [Example 2-45] yielded a melting point of 142 to 144 °C. In addition, the IC50 in series [1] lay in the range of 10 to 100 nM.

In the case of `CC1(C)Oc2nc(C(F)(F)F)nc(N)c2N=C1c1ccc([C@H]2CC[C@H](CNC(N)=O)CC2)c(Cl)c1` [Example 6-22], the melting point is 147 °C (dec.). Also, the IC50 in series [1] is 10 to 100 nM.

Compound `CC(=O)NCC[C@H]1CC[C@H](c2ccc(C3=Nc4c(N)ncnc4OC3(C)C)cc2)CC1` [Example 2-174] registered a melting point of 238 to 239 °C. Also, the IC50 in series [1] was 10 to 100 nM.

The compound `Cc1nc(N)c2c(n1)OC(C)(C)C(c1ccc([C@H]3CC[C@H](CNC(=O)CO)CC3)c(F)c1)=N2` [Example 6-10] came in with a melting point of 212 to 214 °C. In addition, the IC50 in series [1] is 10 to 100 nM.

`CC1(C)Oc2ncnc(N)c2N=C1c1ccc([C@H]2CC[C@H](CC(=O)N3CCOCC3)CC2)cc1` [Example 2-95] showed a melting point of 199 to 200 °C. Besides, the IC50 in series [1] was in the range of 10 to 100 nM.

As to `CC1(C)Oc2ncnc(N)c2N=C1c1ccc(C2CCC(=CC(=O)O)CC2)cc1` (centres unmarked) [Example 2-40], the melting point was greater than 250 °C. For the same compound, the IC50 in series [1] was less than 10 nM.

The compound `CC1(C)Oc2ncnc(N)c2N=C1c1ccc([C@H]2CC[C@H](CC(=O)N3CCC[C@H]3CO)CC2)cc1` [Example 2-100] yielded a melting point of 184 to 185 °C. Also, the IC50 in series [1] was 10 to 100 nM.

`CC(C)(NC(=O)C[C@H]1CC[C@H](c2ccc(C3=Nc4c(N)ncnc4OC3(C)C)cc2)CC1)C(=O)O` [Example 2-65] returned a melting point of 243 to 244 °C. The IC50 in series [1] is less than 10 nM.

`Nc1nc(O)nc2c1N=C(c1ccc(Br)cc1)CO2` [Example 1-29]: the melting point is greater than 220 °C. Also, the IC50 in series [1] is greater than 100 nM.

In turn, `CC1(C)Oc2ncnc(N)c2N=C1c1ccc([C@H]2CC[C@H](CCC(N)=O)CC2)cc1` [Example 2-5] returned a melting point of 244 to 246 °C. Besides, the IC50 in series [1] lay within 10 to 100 nM.

As for `CC1(C)Oc2ncnc(N)c2N=C1c1ccc([C@H]2CC[C@H](Cc3nc4cc(F)ccc4[nH]3)CC2)cc1` [Example 2-124], the melting point is greater than 230 °C. In series [1], the IC50 was in the range of 10 to 100 nM.

In the case of `CC1(C)Oc2ncnc(N)c2N=C1c1ccc([C@H]2CC[C@H](CC(=O)N3CCN(CCO)CC3)CC2)cc1` [Example 2-97], the melting point was 225 to 226 °C. Further, the IC50 in series [1] fell in the range of 10 to 100 nM.

With `CC(=O)N1CCC(c2ccc(C3=Nc4c(N)ncnc4OC3(C)C)cc2)CC1` [Example 3-3], the melting point was 232 to 237 °C. Moreover, the half-maximal inhibitory concentration (IC50) in series [1] was greater than 100 nM.

Regarding `CC1(C)Oc2ncnc(N)c2NC1c1ccc(F)cc1` (centres unmarked) [Example 2-21], the melting point is greater than 230 °C. In addition, the IC50 in series [1] is greater than 100 nM.
